{"source": "patent US20020107236A1", "about": "“Methods of treating sexual dysfunction associated with hypertension” (priority 2000, published 2002)", "origin": "cited, not measured here", "tested_on": "male rats", "conditions": "used for treatment of hypertensive disorder in male rats", "data": [{"compound": "CCCCc1nc(Cl)c(CO)n1Cc1ccc(-c2ccccc2-c2nn[nH]n2)cc1", "note": "[losartan]", "values": [{"measurement": "preservation of sexual function", "result": "advantage in preservation of sexual function"}]}]}
